Consider one molecule from patent US11160798B2, “Neuroprotective CB2 receptor agonists” (THE CLEVELAND CLINIC FOUNDATION, priority 2012, dated 2021).

Assay type in all cases: in vivo, rat
Assay [1] concerns Aβ1-40. Put plainly: Clearance of Aβ1-40 injected in the hippocampal CA1 area (immunofluorescence). The settings on record: Aβ1-40-injected rats, 15 mg/kg per day for 14 days; hippocampal CA1. The procedure: (§1) Animals were divided into several groups ([…]). The Aβ1-40 group received bilateral intracerebral microinjection of Aβ1-40 fibrils once and saline intraperitoneally (i.p.) daily for 14 days. The Aβ1-40+MDA7 group received bilateral intracerebral microinjection of Aβ1-40 fibrils once and 15 mg/kg MDA7 i.p. daily for 14 days. Other cohorts received smaller doses of MDA7 (5 mg/kg or 1.5 mg/kg) i.p. daily for 14 days to determine the dose-response characteristics for MDA7. In other groups, AM630 (a CB2 antagonist) 5 mg/kg i.p. was administered daily for 14 days either alone (Aβ1-40+AM630 group) or 15 min prior to MDA7 (15 mg/kg i.p.) administration (Aβ1-40+MDA7+AM630 group) to rats injected with β1-40 fibrils. MDA7 group and control group received bilateral intracerebral microinjection of artificial cerebrospinal fluid (130 mM NaCl, 2.6 mM KCl. 4.3 mM MgCl2 and 1.8 mM CaCl2) once and 15 mg/kg MDA7 or saline i.p. daily for 14 days, respectively. Intraperitoneal administration of AM630, MDA7 or saline started on the same day after intracerebral microinjection of Aβ1-40. All drugs were prepared coded. Decoding was performed at the end of all experiments.
(§2) Microinjection of amyloid fibrils into the hippocampal CA1 area. Rats were anesthetized with sodium pentobarbital (45 mg/kg i.p.) and restrained in a stereotaxic apparatus. Aβ1-40 fibrils were formed as described previously. […]
Immunostaining. […] Three to six sections from each rat were randomly selected and were analyzed using Leica DMLB fluorescence microscope (Leica Microsystems Wetzlar GmbH, Germany) by one investigator, who was blinded to the origin of tissue being examined. Images were quantified using MCID Core software version 7.0 (InterFocus Imaging Ltd, Cambridge, England).

The test system of assay [2] is CB2 receptor. Put plainly: CB2 receptor expression in hippocampal CA1 area (immunostaining, immunoblotting). The settings on record: Aβ1-40-injected rats. How it is done: as §1, with “Intraperitoneal administration of AM630, MDA7 or saline started on the same day after intracerebral microinjection of Aβ1-40. All drugs were prepared coded. Decoding was performed at the end of all experiments.” left out
(§3) Immunostaining. […] Three to six sections from each rat were randomly selected and were analyzed using Leica DMLB fluorescence microscope (Leica Microsystems Wetzlar GmbH, Germany) by one investigator, who was blinded to the origin of tissue being examined. Images were quantified using MCID Core software version 7.0 (InterFocus Imaging Ltd, Cambridge, England). […]
A general note: A western blot detects proteins with antibodies after separation by electrophoresis.

Assay [3] concerns GFAP. Put plainly: GFAP immunoreactivity in hippocampal CA1 area (immunostaining, immunoblotting). The procedure: as §1, §2, §3
Assay [4] has as its system cognitive impairment induced by Aβ1-40. Put plainly: Morris water maze test in rats microinjected with Aβ1-40 fibrils. How it is done: Animals and treatment protocol. All animal procedures were approved by the Animal Care and Use Committee of Cleveland Clinic. Animals were housed the Institutional Biological Rodent Unit on a 12/12 h light/dark cycle with water and food pellets available ad libitum. Adult male Sprague-Dawley (Charles River, Wilmington, Mass.) rats weighing 200-250 g were used, and all experiments were performed during the light cycle.
as §1
Microinjection of amyloid fibrils into the hippocampal CA1 area. Rats were anesthetized with sodium pentobarbital (45 mg/kg i.p.) and restrained in a stereotaxic apparatus. Aβ1-40 fibrils were formed as described previously. Chacon, et al., Mol Psychiatry 9(10), 953-61 (2004), Aβ1-40 fibrils (10 μg/3 μl) or 3 μl of artificial cerebrospinal fluid were injected stereotaxically and bilaterally into each hippocampus (coordinates; Bregma −3.5 mm anteroposterior, ±2.0 mm mediolateral, and −3.0 mm dorsoventral) using a 10 μl Hamilton syringe with a 27 G stainless steel needle at a rate of 0.5 μl/min. This experimental model has been used for studying AD. Ahmed, et al., Neuroscience 169(3), 1296-306 (2010).
Morris water maze test. A cohort of rats (n=10 per group) was tested 15 days after surgery as described by Chacon et al. (ibid). Testing was conducted in all groups at the same time of the day. The experimental apparatus consisted of a circular pool (120 cm in diameter, 45 cm high). An invisible platform (15 cm in diameter, 35 cm high) was placed 1.5 cm below the surface of the water. The water temperature was kept at 24-28° C. The pool was located in a test room, and many clues external to the maze were visible from the pool, which could be used by the rats for spatial orientation. The position of the cues was kept constant throughout the task. Each rat underwent four trials per day for five days. During each trial (memory acquisition), the rats were placed randomly at one of four fixed starting points and were allowed to swim for 120 s or until they escaped from the water by reaching the platform. The platform was located in the same position throughout the test in the middle of one quadrant. The start location was moved to a different quadrant in each trial so that no single start location was used in consecutive trials. In each training session, the latency to escape to the hidden platform was recorded. After the rats reached the platform, they were allowed to rest there for 20 seconds, and they then were removed from the pool. An inter-trial interval of at least 4 minutes was used to ensure that each rat's performance was not impaired by fatigue. After completing four trials, the rats were removed from the pool, dried and returned to their home cage. […]

“Also recorded” adds a separate entry of the source.

`CC1(Cc2ccccc2)COc2cc(C(=O)N3CCCCC3)ccc21` (centres unmarked) [MDA7, 3-benzyl-3-methyl-2,3-dihydrobenzofuran-6-carboxylic acid-piperidine amide]: in assay [1], the “clearance of injected Aβ1-40” value is listed as “induced removal of Aβ1-40”. For the same molecule, the “CB2 receptor expression (immunoblotting)” value in assay [2] (15 mg/kg i.p. daily for 14 days) is reported as “significantly reversed”. In addition, the “CB2 expression (immunofluorescence)” value in assay [2] (15 mg/kg i.p. for 14 days, vs saline) is reported as “reduced CB2 expression”. In assay [3] (Aβ1-40-injected rats, 15 mg/kg i.p. for 14 days, vs saline, hippocampal CA1), the GFAP immunofluorescence intensity result is “significantly less”. Further, the “GFAP protein expression (immunoblot)” value in assay [3] (Aβ-injected rats, 14 days i.p. (15 mg/kg), vs saline, hippocampal CA1) is on record as “significantly attenuated”. The “GFAP expression, treatment alone” value in assay [3] (rats without Aβ1-40, compared to control rats) is “no significant effect”. Moreover, the “escape latency / memory enhancement in the Morris water maze test” value was “did not result in any significant memory enhancement” in assay [4] (Aβ1-40 fibril-injected rats, 1.5 mg/kg i.p. daily for 14 days); “limited only to days 3 and 5” in assay [4] (Aβ1-40 fibril-injected rats, 5 mg/kg i.p. daily for 14 days). For the same molecule, the “escape latency in the Morris water maze test” value in assay [4] (Aβ1-40 fibril-injected rats, 15 mg/kg i.p. daily for 14 days, vs i.p. saline, days 3-5) is reported as “significantly shorter escape latency”. Further, the “probe trial, time spent in the target quadrant” value in assay [4] (Aβ1-40 fibril-injected rats, 15 mg/kg i.p. for 14 days, vs i.p. saline, day 6, 15 mg/kg) is listed as “spent the longest time in the target quadrant; also recorded: significantly longer time in the target quadrant”. In assay [4] (rats microinjected with artificial cerebrospinal fluid, 15 mg/kg for 14 days vs saline i.p.), the “escape latency, treatment alone” value was “no significant difference”.
